From patent US11440907B1 (Merck Patent GmbH, priority 2018, dated 2022) come the findings set out here.

Data set [1] relates to β-catenin-TCF-mediated reporter transcription activity in Colo 205 cells. Put plainly: Colo 205 reporter assay (TCF/LEF promoter-driven firefly luciferase). Format: cell-based. As to conditions: Homo sapiens; Colo 205 TCF/LEF luciferase reporter, 5 hours after compound addition, 384 well; read-out: Colo205 IC50. For orientation: A reporter such as luciferase makes a cellular process visible.

Data set [2] deals with XBP1(u)-luciferase splicing reporter in HepG2 hepatoma cells. Put plainly: HepG2 XBP1 reporter assay (XBP1(u)-Luc). Format: cell-based. The conditions noted are these: Homo sapiens, 6 hours after compound addition; for EC50: Table 3, read-out: XBP1-luc HepG2 1 EC50; for IC50: Table 4.
The test system of data set [3] is intracellular calcium flux in Colo-205 cells. Description: Calcium flux assay (FLIPR Calcium 5 Assay Kit, FLIPR3). Type of data set: cell-based. The conditions noted are these: Homo sapiens, 0.6 h, calcium flux measured over 36 minutes, read-out: Colo 205 Calcium Flux assay 384w Boston Ca assay FLIPR3 Colo EC50. On the procedure: Compounds described herein induced ER stress by causing intracellular calcium flux. Calcium flux was measured in Colo-205 cells using the FLIPR® Calcium 5 Assay Kit according to manufacturer's protocol (Molecular Devices, Cat. #R8186) on a FLIPR3 system (Molecular Devices). Calcium flux is measured over 36 minutes. The Colo-205 calcium flux assay data are summarized in Table 3: A<0.6 μM; 0.6 μM≤B<2.0 μM; 2.0 μM≤C<10.0 μM; D≥10.0 μM.
Background: Calcium flux is commonly read through the fluorescence of an indicator in the cells.

The subject of data set [4] is NCI-H929 (Multiple myeloma cells). Put plainly: Cell viability (ATPLite) in NCI-H929. The conditions noted are these: Homo sapiens, 96 hours. Type of data set: cell-based. The essentials: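 Cells were seeded at 500/well and, after 24 h, treated with compound at 100 nM or 2 uM for 0 or 96 hours. Viability was measured by ATPLite cellular ATP read-out.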
In data set [5] the test system is DU4475 (breast cancer cells). Put plainly: Cell viability (ATPLite) in DU4475. Format: cell-based. The conditions noted are these: Homo sapiens, DU-4475, 96 hours. As for the experimental part:
Cells were removed from liquid nitrogen storage, thawed and expanded in appropriate growth media. Once expanded, cells were seeded in 384-well tissue culture treated plates at 500 cells per well. After 24 hours, cells were treated for either 0 hours or treated for 96 hours with a testing compound (at the concentrations of 100 nM and 2 uM). At the end of either 0 hours or 96 hours, cell status was analyzed using ATPLite (Perkin Elmer) to assess the biological response of cells to the testing compound.

On to `Cc1cc(N2CCCN(S(C)(=O)=O)CC2c2ccccc2Cl)nc(N)n1` (racemic) [I-28, (+/−)-4-(2-(2-chlorophenyl)-4-(methylsulfonyl)-1,4-diazepan-1-yl)-6-methylpyrimidin-2-amine], for which the melting point (in general, the temperature, or range, at which the solid turns liquid) is 278 to 280 °C.
For the compound `COc1cc(C2CCCCCN2c2cc(C)nc(N)n2)c(OC)cn1` (racemic) [I-116, (+/−)-4-[2-(2,5-dimethoxy-4-pyridyl)azepan-1-yl]-6-methyl-pyrimidin-2-amine], the melting point lay within 107 to 109 °C.
In turn, `COc1ccc(Cl)c(C2CCCCCN2c2cc(C)nc(N)n2)c1` (racemic) [I-117, (+/−)-4-(2-(2-chloro-5-methoxyphenyl)azepan-1-yl)-6-methylpyrimidin-2-amine] gave a melting point of 88 to 90 °C. For the same compound, the IC50 (as a rule, the midpoint of a concentration-inhibition curve) in data set [1] lay within 300 to 1000 nM.
On to `COc1ccc(Cl)c(C2COCCCN2c2cc(C)nc(N)n2)c1` (racemic) [I-118, (+/−)-4-(3-(2-chloro-5-methoxyphenyl)-1,4-oxazepan-4-yl)-6-methylpyrimidin-2-amine], for which the melting point came to 220 °C. The IC50 in data set [1] fell in the range of 300 to 1000 nM.
The corresponding values for `Cc1cc(N2CCCOCC2c2cc(N3CCCC3=O)ccc2Cl)nc(N)n1` (racemic) [I-119, 1-(3-(4-(2-amino-6-methylpyrimidin-4-yl)-1,4-oxazepan-3-yl)-4-chlorophenyl)pyrrolidin-2-one] are 138 to 140 °C and 300 to 1000 nM.
Consider `Cc1cc(N2CCCOCC2c2cc(C(O)C(F)(F)F)ccc2Cl)nc(N)n1` (racemic) [I-134, (+/−)-1-(3-(4-(2-amino-6-methylpyrimidin-4-yl)-1,4-oxazepan-3-yl)-4-chlorophenyl)-2,2,2-trifluoroethan-1-ol], for which the melting point stood at 110 °C. Further, the IC50 in data set [1] lay within 300 to 1000 nM.
With `Cc1cc(N2CCCOCC2c2cc(NC(=O)CN(C)C)ccc2Cl)nc(N)n1` (racemic) [I-168, (+/−)-N-[3-[4-(2-amino-6-methyl-pyrimidin-4-yl)-1,4-oxazepan-3-yl]-4-chloro-phenyl]-2-(dimethylamino)acetamide], the melting point was in the range of 95 to 97 °C. In data set [1], the 50% inhibitory concentration (IC50) lay within 300 to 1000 nM.
`CCNc1cc(C2COCCCN2c2cc(C)nc(N)n2)c(Cl)cc1F` (racemic) [I-272, (+/−)-4-[3-[2-chloro-5-(ethylamino)-4-fluoro-phenyl]-1,4-oxazepan-4-yl]-6-methyl-pyrimidin-2-amine] returned a melting point of 180 °C. Further, the IC50 in data set [1] was 300 to 1000 nM. Further, in data set [2], the EC50 (usually the concentration that produces a half-maximal response) lay in the range of 600 to 2000 nM.
For the compound `Cc1cc(N2CCCOCC2c2ccc(NC(=O)C(F)F)cc2Cl)nc(N)n1` (racemic) [I-278, (+/−)-N-(4-(4-(2-amino-6-methylpyrimidin-4-yl)-1,4-oxazepan-3-yl)-3-chlorophenyl)-2,2-difluoroacetamide], the melting point is 188 to 190 °C. The IC50 in data set [1] was < 300 nM. In addition, the EC50 in data set [2] was < 600 nM.
The compound `Cc1cc(N2CCCOC[C@H]2c2ccccc2Cl)nc(N)n1` (single isomer, unassigned) [I-30] registered a melting point of 156 to 160 °C.
Still for that read-out and setting: the value for `Cc1cc(N2CCCOC[C@H]2c2ccc(C#N)cc2Cl)nc(N)n1` (single isomer, unassigned) [I-96] was 220 °C; that for `Cc1cc(N2CCCOC[C@@H]2c2cc(S(C)(=O)=O)ccc2Cl)nc(N)n1` (single isomer, unassigned) [I-103] was 120 °C.
The compound `Cc1cc(N2CCCOC[C@@H]2c2cc(NS(C)(=O)=O)ccc2Cl)nc(N)n1` (single isomer, unassigned) [I-161] had a melting point of 160 °C. For the same compound, the IC50 in data set [1] was < 300 nM. Moreover, the EC50 in data set [2] is < 600 nM.
The compound `Cc1cc(N2CCCOC[C@@H]2c2ccc(Br)cc2Cl)nc(N)n1` (single isomer, unassigned) [I-201] displayed a melting point of 100 to 102 °C. Besides, the IC50 in data set [1] fell in the range of 300 to 1000 nM. In addition, the EC50 in data set [2] was < 600 nM. For the same compound, the EC50 in data set [3] was < 600 nM.
Turning to `Cc1cc(N2CCCOCC2c2cc(C)c(N)cc2Cl)nc(N)n1` (stereo not shown) [C-16], the IC50 in data set [2] is < 600 nM; in data set [4] it was < 1000 nM; in data set [5], < 1000 nM.
In the case of `Cc1cc(N2CCCOCC2c2cc(F)c(Cl)cc2Cl)nc(N)n1` (stereo not shown) [C-18], the IC50 in data set [2] lay in the range of 2000 to 5000 nM; in data set [4], 1000 to 10000 nM; in data set [5], 1000 to 10000 nM.
In the case of `COc1cc(Cl)c(C2COCCCN2c2cc(C)nc(N)n2)cc1Cl` (stereo not shown) [C-19], the half-maximal inhibitory concentration (IC50) was 600 to 2000 nM in data set [2], 1000 to 10000 nM in data set [4] and < 1000 nM in data set [5].
As to `Cc1cc(N2CCCOCC2c2cc3c(cc2Cl)n(C)c(=O)n3C)nc(N)n1` (stereo not shown) [C-20], the results for the IC50 in data set [2], in data set [4] and in data set [5] were < 600 nM, < 1000 nM and < 1000 nM, respectively.
With `CCNc1cc(Cl)c(C2COCCCN2c2cc(C)nc(N)n2)cc1C` (stereo not shown) [C-21], the IC50 in data set [2] was < 600 nM; in data set [4] it was < 1000 nM; in data set [5] it was < 1000 nM.
For the compound `CCOc1cc(Cl)c(C2COCCCN2c2cc(C)nc(N)n2)cc1OC` (stereo not shown) [C-23], the IC50 in data set [2] was < 600 nM; in data set [4], < 1000 nM; in data set [5], < 1000 nM.
Take `COc1cc(C2COCCCN2c2cc(C)nc(N)n2)c(Cl)cc1OC(C)C` (stereo not shown) [C-24]: the IC50 was < 600 nM in data set [2], 1000 to 10000 nM in data set [4] and < 1000 nM in data set [5].
Take `Cc1cc(N2CCCOCC2c2cc(F)c(O)cc2Cl)nc(N)n1` (stereo not shown) [C-30]: the figures for the IC50 in data set [2], in data set [4] and in data set [5] were 600 to 2000 nM, 1000 to 10000 nM and 1000 to 10000 nM, respectively.
With `Cc1cc(N2CCCOCC2c2cc(C(F)(F)F)c(N)cc2Cl)nc(N)n1` (stereo not shown) [C-31], the IC50 in data set [2] is < 600 nM; in data set [4], 1000 to 10000 nM; in data set [5] it was < 1000 nM.
With `Cc1cc(N2CCCOCC2c2cc3c(cc2Cl)N(C)CC3)nc(N)n1` (stereo not shown) [C-32], the IC50 in data set [2] is < 600 nM; in data set [4], < 1000 nM; in data set [5] it was < 1000 nM.
As for `Cc1cc(N2CCCOCC2c2cc(Cl)c(Cl)cc2Cl)nc(N)n1` (stereo not shown) [C-34], the IC50 in data set [2] is ≥ 5000 nM; in data set [4] it was 1000 to 10000 nM; in data set [5], 1000 to 10000 nM.
As to `Cc1cc(N2CCCOCC2c2cc3c(cc2Cl)NC(=O)CO3)nc(N)n1` (stereo not shown) [C-35], the IC50 in data set [2] was < 600 nM; in data set [4] it was < 1000 nM; in data set [5] it was < 1000 nM.
As for `COc1cc(Cl)c([C@H]2COCCCN2c2cc(C)nc(N)n2)cc1O` [C-36], the IC50 in data set [2] is < 600 nM; in data set [4] it was < 1000 nM; in data set [5], < 1000 nM.
With `Cc1cc(N2CCCOCC2c2cc(C)c(F)cc2Cl)nc(N)n1` (stereo not shown) [C-38], the IC50 in data set [2] lay within 2000 to 5000 nM; in data set [4], 1000 to 10000 nM; in data set [5], 1000 to 10000 nM.
On to `COc1cc(Cl)c(C2COCCCN2c2cc(C)nc(N)n2)cc1OC(C)C` (stereo not shown) [C-39], for which the IC50 in data set [2] is 600 to 2000 nM; in data set [4], 1000 to 10000 nM; in data set [5], < 1000 nM.
Consider `CCOc1cc(Cl)c(C2COCCCN2c2cc(C)nc(N)n2)cc1OCC` (stereo not shown) [C-40], for which the IC50 was < 600 nM in data set [2], 1000 to 10000 nM in data set [4] and < 1000 nM in data set [5].
For `CCOc1cc(Cl)c(C2COCCCN2c2cc(C)nc(N)n2)cc1Cl` (stereo not shown) [C-41], in that order: < 600 nM, 10000 to 25000 nM and < 1000 nM.
Consider `Cc1cc(N2CCCOCC2c2ccc(OC[C@@H](O)CO)cc2Cl)nc(N)n1` (stereo partly drawn) [C-42, (S)-3-{4-[4-(2-Amino-6-methyl-pyrimidin-4-yl)-[1,4]oxazepan-3-yl]-3-chloro-phenoxy}-propane-1,2-diol], for which the values for the IC50 in data set [2], in data set [4] and in data set [5] were 600 to 2000 nM, < 1000 nM and < 1000 nM, respectively.
As for `Cc1cc(N2CCCOC[C@@H]2c2ccc(N3CCC(C)(O)CC3)cc2Cl)nc(N)n1` [C-151], the IC50 in data set [2] is < 600 nM; in data set [4] it was < 1000 nM; in data set [5] it was < 1000 nM.
In the case of `Cc1cc(N2CCCOC[C@@H]2c2ccc(NC3COC3)cc2Cl)nc(N)n1` [C-152], the IC50 in data set [2] is < 600 nM; in data set [4], < 1000 nM; in data set [5], < 1000 nM.
